Structures are written as SMILES.

This test has as its target T1, DC-SIGN (Homo sapiens, UniProt Q9NNX6).
T1 sequence (Q9NNX6 59-404 limits assumed): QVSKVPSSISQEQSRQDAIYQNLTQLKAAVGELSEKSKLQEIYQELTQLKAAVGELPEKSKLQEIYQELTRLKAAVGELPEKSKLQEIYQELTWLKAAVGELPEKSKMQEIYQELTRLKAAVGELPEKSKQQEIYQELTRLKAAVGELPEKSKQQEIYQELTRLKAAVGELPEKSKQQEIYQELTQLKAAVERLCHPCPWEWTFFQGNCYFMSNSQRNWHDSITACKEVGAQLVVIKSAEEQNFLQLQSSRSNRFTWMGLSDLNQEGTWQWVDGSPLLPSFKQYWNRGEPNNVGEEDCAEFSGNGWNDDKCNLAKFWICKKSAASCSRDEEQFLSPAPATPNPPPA
Type of test: binding.

As to `CC(=O)N[C@@H]1C(O)O[C@H](CO)[C@@H](O)[C@@H]1O` (stereo partly shown) [N-acetylmannosamine], the IC50 was 11.2 ± 0.7 mM.

Values taken from PMC3005762 (Chemical communications (Cambridge, England), 2010).
